The data set deals with primarily cultured cortical neurons. The experiment in a line: High-content image analysis of the effect of chemotherapy drugs on primarily cultured neurons (neuron number, synaptic puncta number, neurite length). As to conditions: cells cultured for 10 days, drug added for 24 hours, FIG. 7-9; for neurotoxicity (effect on the neuron number, the synaptic puncta number and the neurite length): MAP2/synaptophysin/Hoechst staining.

Experimental: To analyze neural function accurately, MetaXpress 3.1 software (“MetaXpress® Image Acquisition and Analysis Software (Analysis Guide)” was used on the website ftp://ftp.meta.moleculardevices.com/pub/uic/software/MX31R13/HelpDocs/MetaXpress/MetaXpress_3_1_Analysis_Guide.pdf) to design an analysis module. An automatic analysis was performed according to the following optimal indicators (a)˜(c) for image analysis with 32 steps.
The cultured cells including neurons and glial cells were firstly separated according to the area and the fluorescence intensity of the nucleus stained by Hoechst dye together with MAP2 antibody.
After neurons stained with MAP2 were selected, the area of neuronal cell body, the length and the number of processes and branches of the neurites were calculated to verify outgrowth of the neurites.
Numbers of synaptic puncta of the neurons were calculated according to the area of the neurites labeled with fluorescence mentioned above to verify formation of the synaptic puncta of the neurons.
Cerebral cortex was obtained from 0˜1 day old B6 mice pup and meninges were removed. DMEM/F12 medium without serum was used to triturate the cortex tissue. Then, the DMEM/F12 medium without serum was refilled to 5 mL, mixed evenly with 0.5 mL trypsin, and placed at 37° C. for 5 minutes. Then the mixture with 1 mL FBS was filtered through a cell strainer. After a centrifugation at 3,000 rpm for 10 min, the supernatant was removed and precipitated cells were added to a medium required for nerve cell culture. The medium was prepared by adding B-27® Supplement, 0.5 mM L-glutamine, and 0.5% penicillin streptomycin to Neurobasal® A medium.
(2) Black multi-well microplates with clear bottom were used for nerve cell culture. Each well was coated with 70 μL poly-D-lysine or poly-L-lysine. Cells were seeded in a density of 2.8×10^4/well. After cells were cultured for 10 days, chemotherapy drugs listed in the table 1 was respectively added to react with cells for 24 hours. Then cells were fixed with 4% polyformaldehyde for 10 min and washed with PBS twice for 5 min each. Then, each well was added with 1 M glycine reacting for 10 min and wash with PBS twice for 5 min each. After cells were added with 0.05% Triton X-100 reacting for 20 min and washed with PBS twice for 5 min each, cell were blocked with 4% BSA for 1 hour and then stained with primary antibodies including anti-MAP2 antibody (MyBioSource; MBS502140) and anti-synaptophysin antibody (Abcam; ab32127) for 12-16 hours. Next, cells were washed twice with PBST (10 min each) and incubated with fluorescence-conjugated secondary antibodies including Alexa Fluor 488 (Jackson ImmunoResearch; 703-546-155) and Alexa Fluor 647 (molecular probes; A31573) and Hoechst 33258 for 1 hour. At last, cells were washed twice with PBST (10 min each) and added with PBS for further image acquisition and analysis.
(3) Fluorescence microscopy system and method mentioned in the above embodiment were used to capture images at the wavelength of DAPI, FITC, and Cy5 for image analysis of the cultured cells. The images were enlarged 200 times (200×) and saved automatically after the shooting for analysis.

Turning to `Nc1ccn([C@@H]2O[C@H](CO)[C@@H](O)C2(F)F)c(=O)n1` [Gemcitabine], the “neurotoxicity (effect on the neuron number, the synaptic puncta number and the neurite length)” value is “less neurotoxicity”. For `N.N.O=C([O-])C1(C(=O)[O-])CCC1.[Pt+2]` [carboplatin, Carboplatin], for the setting “compared with cisplatin”, the “neurotoxicity compared with cisplatin” value is reported as “less neurotoxicity”.

`COc1cccc2c1C(=O)c1c(O)c3c(c(O)c1C2=O)C[C@@](O)(C(=O)CO)C[C@@H]3O[C@H]1C[C@H](N)[C@H](O)[C@H](C)O1` [doxorubicin, Doxorubicin]: the “neurotoxicity (effect on the neuron number, the synaptic puncta number and the neurite length)” value was “less neurotoxicity”. In the case of `CC(=O)O[C@H]1C(=O)[C@@]2(C)[C@H]([C@H](OC(=O)c3ccccc3)[C@]3(O)C[C@H](OC(=O)[C@H](O)[C@@H](NC(=O)c4ccccc4)c4ccccc4)C(C)=C1C3(C)C)[C@]1(OC(C)=O)CO[C@@H]1C[C@@H]2O` [paclitaxel, Paclitaxel], the “neurotoxicity (effect on the neuron number, the synaptic puncta number and the neurite length)” value is listed as “severe neurotoxicity”. Turning to `CC[C@]1(O)C[C@H]2CN(CCc3c([nH]c4ccccc34)[C@@](C(=O)OC)(c3cc4c(cc3OC)N(C=O)[C@H]3[C@@](O)(C(=O)OC)[C@H](OC(C)=O)[C@]5(CC)C=CCN6CC[C@]43[C@@H]65)C2)C1` [vincristine, Vincristine], the “neurotoxicity (effect on the neuron number, the synaptic puncta number and the neurite length)” value is “severe neurotoxicity”.

For the origin of these results see patent US10520493B2, “Method for assessment of neural function by establishing analysis module” (NATIONAL CHENG KUNG UNIVERSITY, priority 2015, dated 2019).
